Assays:
[1] = test system: primary human fibroblasts derived from IPF patients (LL29 cells); experiment: Inhibition of fibrotic process: αSMA staining in TGF-β1-treated primary human fibroblasts from IPF patients (LL29 cells); format: cell-based; details: Fibroblast, 96 h, LL29 cells treated with TGF-β1 (20 ng/mL), 4 days, 11-point dose-response from 10 μM to 1.87 nM, read-out: Inhibition of fibrosis EC50
Procedure, shortened: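 LL29 IPF lung fibroblasts in F12 with 1% FBS, compound (11-point, 10 μM to 1.87 nM, 0.1% DMSO) plus TGF-β1 20 ng/mL for 4 days at 37° C. αSMA-positive % of SYTOX-negative cells by immunofluorescence imaging, normalized to TGF-β1 wells; EC50 from non-linear regression of triplicates.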

[2] = test system: Wnt activity (Wnt-responsive Sp5 promoter-luciferase reporter in SW480 cells); experiment: Wnt activity screening assay: Sp5-Luc reporter gene in SW480 colon carcinoma cells; format: cell-based; details: Homo sapiens
Procedure, shortened: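 IC50 values come from variable-slope four-parameter fits of luciferase signal normalized to DMSO wells. Stable Sp5-Luc reporter SW480 colon carcinoma cells were exposed to compounds in a 3-fold dilution series (source plates from 10 mM stock) for forty-two hours at 37 °C.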

Structure (SMILES) | IC50 [2] [nM] | EC50 [1] [nM]
CN(C)CCNc1cc(F)cc(-c2cncc3[nH]c(-c4n[nH]c5cnc(-c6cncc(CNCC7CCCC7)c6)cc45)nc23)c1 [Compound 440, N^1-(3-(2-(5-(5-(((Cyclopentylmethyl)amino)methyl)pyridin-3-yl)-1H-pyrazolo[3,4-c]pyridin-3-yl)-3H-imidazo[4,5-c]pyridin-7-yl)-5-fluorophenyl)-N2,N2-dimethylethane-1,2-diamine] | 1210 | ≤ 9
Fc1cccc(-c2cncc3[nH]c(-c4n[nH]c5cnc(C6CCNCC6)cc45)nc23)c1 [Compound 885, 3-(7-(3-Fluorophenyl)-3H-imidazo[4,5-c]pyridin-2-yl)-5-(piperidin-4-yl)-1H-pyrazolo[3,4-c]pyridine] | > 10000 | ≥ 9990
Fc1cccc(-c2cncc3[nH]c(-c4n[nH]c5cnc(C6=CCNCC6)cc45)nc23)c1 [Compound 886, 3-(7-(3-Fluorophenyl)-3H-imidazo[4,5-c]pyridin-2-yl)-5-(1,2,3,6-tetrahydropyridin-4-yl)-1H-pyrazolo[3,4-c]pyridine] | 1940 | 72
O=C(CC1CCNCC1)Nc1cncc(-c2cc3c(-c4nc5c(-c6cccc(F)c6)cncc5[nH]4)n[nH]c3cn2)c1 [Compound 893, N-(5-(3-(7-(3-Fluorophenyl)-3H-imidazo[4,5-c]pyridin-2-yl)-1H-pyrazolo[3,4-c]pyridin-5-yl)pyridin-3-yl)-2-(piperidin-4-yl)acetamide] | > 10000 | ≥ 9990
Fc1cccc(-c2cncc3[nH]c(-c4n[nH]c5cnc(-c6ccccn6)cc45)nc23)c1 [Compound 901, 3-(7-(3-Fluorophenyl)-3H-imidazo[4,5-c]pyridin-2-yl)-5-(pyridin-2-yl)-1H-pyrazolo[3,4-c]pyridine] | 805 | 584
CC(C)CC(=O)Nc1cncc(-c2cc3c(-c4nc5c(-c6cc(O)cc(F)c6)cncc5[nH]4)n[nH]c3cn2)c1 [Compound 1280, N-(5-(3-(7-(3-Fluoro-5-hydroxyphenyl)-3H-imidazo[4,5-c]pyridin-2-yl)-1H-pyrazolo[3,4-c]pyridin-5-yl)pyridin-3-yl)-3-methylbutanamide] | > 10000 | ≤ 9

These reach a lower IC50 [2]. Values come first.

IC50 [2] [nM] | Structure (SMILES) | EC50 [1] [nM]
227 | CCCCC(=O)Nc1cncc(-c2cc3c(-c4nc5c(-c6cc(F)cc(NCCN(C)C)c6)cncc5[nH]4)n[nH]c3cn2)c1 [Compound 434, N-(5-(3-(7-(3-((2-(Dimethylamino)ethyl)amino)-5-fluorophenyl)-3H-imidazo[4,5-c]pyridin-2-yl)-1H-pyrazolo[3,4-c]pyridin-5-yl)pyridin-3-yl)pentanamide] | 8260
552 | Cc1ncc(-c2cc3c(-c4nc5c(-c6cccc(F)c6)cncc5[nH]4)n[nH]c3cn2)n1C [Compound 889, 5-(1,2-Dimethyl-1H-imidazol-5-yl)-3-(7-(3-fluorophenyl)-3H-imidazo[4,5-c]pyridin-2-yl)-1H-pyrazolo[3,4-c]pyridine] | 46
59 | Oc1cncc(-c2cc3c(-c4nc5c(-c6cccc(F)c6)cncc5[nH]4)n[nH]c3cn2)c1 [Compound 897, 5-(3-(7-(3-Fluorophenyl)-3H-imidazo[4,5-c]pyridin-2-yl)-1H-pyrazolo[3,4-c]pyridin-5-yl)pyridin-3-ol] | 32
65 | Fc1cccc(-c2cncc3[nH]c(-c4n[nH]c5cnc(-c6ccncc6)cc45)nc23)c1 [Compound 900, 3-(7-(3-Fluorophenyl)-3H-imidazo[4,5-c]pyridin-2-yl)-5-(pyridin-4-yl)-1H-pyrazolo[3,4-c]pyridine] | ≤ 9
547 | COc1cc(F)cc(-c2cncc3[nH]c(-c4n[nH]c5cnc(-c6cncc(NC(=O)CC(C)C)c6)cc45)nc23)c1 [Compound 1324, N-(5-(3-(7-(3-Fluoro-5-methoxyphenyl)-3H-imidazo[4,5-c]pyridin-2-yl)-1H-pyrazolo[3,4-c]pyridin-5-yl)pyridin-3-yl)-3-methylbutanamide] | ≤ 9
